Test results: patent US5053338A, “Kinetic resolution of pyridazinones using lipase” (Glaxo Inc., priority 1990, dated 1991)

Columns and labels:
[1] = test system: anesthetized dogs (left ventricular dP/dt); experiment: Anesthetized Dog: inotropic effect (increase in baseline dP/dt); assay type: in vivo; details: infusion of atenolol
Procedure: Inotropic effects were evaluated in barbiturate-anesthetized dogs by differentiating left intraventricular pressure. This procedure was carried out essentially as described by M. K. Grizzel et al in the FASEB Journal, Vol. 3, page 1039, abstract 4728 (1989). […] Cardiac output was determined via thermodilution with a Spectramed computer (Starcom, Oxnard, Calif.) and a 5F Swan Ganz catheter which was inserted into the right jugular vein and positioned in the pulmonary artery. […] A lead II electrocardiogram was measured using subcutaneous electrodes. […] Rectal temperature was monitored and maintained at 37°-38° C. with a heating pad (Baxter Health Care model K20, McGaw Park, Ill.). All variables were recorded using a Gould 3800S physiograph.
Isoproterenol ([…]) was injected i.v. into the cephalic vein at 10 min intervals except for when the test drug infusion was begun. […] Inhibition of the isoproterenol responses on contractibility (dP/dt), heart rate and diastolic blood pressure were determined at each dose of test compound. The inotropic effect of each compound was determined by comparing the level of dP/dt at the end of each 10 min period to that of the level of dP/dt just prior to the infusion of test compound. […]

[2] = test system: rat aorta; experiment: Rat Aorta Protocol (relaxation of phenylephrine-contracted rat aorta rings); assay type: cell-based; details: phenylephrine 1×10^-7 M, methylene blue and propranolol present, endothelium removed, read-out: IC50 (concentration producing a relaxation equivalent to 50% of the maximal relaxation induced by nitroprusside)
Procedure: Such vasorelaxation appears to be related to inhibition of the phosphodiesterase (PDE) isozyme related to the cardiac sarcoplasmic reticulum. Thus, relaxation of rat aorta can be used as a screen to eliminate compounds which are not PDE inhibitors prior to testing for actual inotropic activity.
Rings of rat aorta (endothelium removed) were prepared for the measurement of isometric force in isolated tissue organ chambers essentially as previously described by T. J. Rimele et al in the Journal of Pharmacol. Exp. Ther. 245:102-111 (1988). The experimental portion of the protocol began with the addition of methylene blue (1×10^-5 M) and propranolol (1×10^-6 M) to each organ chamber to inhibit basal cGMP accumulation due to soluble guanylate cyclase and beta-adrenoceptors.Phenylephrine (1×10^-7 M) was then added and the rings were allowed to obtain a stable contractile response after which time, the test compound was added in a cumulative fashion. The relaxation induced by each concentration of the test compound was expressed as a percentage of the maximal relaxation produced by nitroprusside (1×10^-4 M) The results were graphically represented as a plot of the percentage relaxation vs. the negative log of the molar concentration of the test compound. […]

[3] = test system: rat aorta; details: R. F. Kauffman et al., J. Pharmacol. Exp. Ther. 242:864-872 (1987); cited from earlier work

## O=C(COc1ccc(C2=NNC(=O)CC2)cc1Cl)NCCNC[C@H](O)COc1ccccc1 [Example 19, 6-{4-[N-[2-[3-phenoxy-2-hydroxypropylamino]ethyl]carbamoylmethoxy]-3-chlorophenyl}-4,5-dihydro-3(2H)-pyridazinone]
[1]
  effect of atenolol on the inotropic effects: not blocked by atenolol
[2]
  IC50: 340 nM

## CSc1ccc(C(=O)c2[nH]c(=O)[nH]c2C)cc1 [enoximone]
[3]
  relaxation of rat aorta: marked relaxation

## Cc1[nH]c(=O)c(C#N)cc1-c1ccncc1 [milrinone]
[3]
  relaxation of rat aorta: marked relaxation
